Test results taken from article PMC12652692, “Synthesis and In Vitro Anticancer Evaluation of Novel Phosphonium Derivatives of Chrysin” (International Journal of Molecular Sciences, 2025).

Legend:
Assay in all cases: NCI60 one-dose screen
T-47D = type: cell-based, human; settings: 10 μM
Experimental: (§1) The screening results are presented in the Supplementary Materials (Table S1), where the cytotoxicity was determined for the 10 µM concentration. […] The negative numbers indicate significant decreases in the cell number. […] Compared to the reference chrysin (2), all phosphonium hybrids (3a–h) had significant antiproliferative activities. […] At the same time, it should be noted that more than 60% average reduction was also obtained in the case of the other examined conjugates (3a–h).
(§2) A detailed description of the NCI screening procedures, including the one-dose and five-dose tests, can be found in the Supplementary Materials, on the website of NCI [39], and in our previous work.
(§3) A detailed description of the NCI screening procedures can also be found on the website of NCI [39], and in our […]
(§4) All candidates were examined at first at a single high dose (10 μM) in the full NCI60 cell panel. The value reported for the one-dose test is growth relative to the no-drug control and relative to the time zero number of cells. This made possible the disclosure of both growth inhibition (numbers between 0 and 100) and lethality (numbers less than 0). For example, a value of 100 means no growth inhibition. A value of 20 would mean 80% growth inhibition. A value of 0 means no net growth over the course of the analysis. A value of −20 would mean 20% lethality. A value of −100 means all cells are dead. […]
(§5) concentration levels. The human tumor cell lines of the cancer screening panel were grown in RPMI 1640 medium containing 5% fetal bovine serum and 2 mM l-glutamine. Characteristically, cells were injected in 96-well microtiter plates in 0.1 mL at plating densities ranging from 5000 to 40,000 cells/well, depending on the doubling time of individual cell lines. After cell inoculation, the microtiter plates were incubated at 37 °C, 5% carbon dioxide, 95% air, and 100% relative humidity for 24 hours before the addition of tested compounds. After 24 hours, 2 plates of each cell line were fixed in situ with Cl3COOH (TCA), to represent a measurement of the cell population for each cell line at the time of drug addition (tz). Tested compounds were solubilized in DMSO at 400-fold the desired final maximum test concentration and stored frozen before application. In the course of the drug addition, an aliquot of frozen concentrate was thawed and diluted to twice the desired final maximum test concentration with a complete medium containing 50 μg mL−1 gentamicin. Additional four, 10-fold or ½ log serial dilutions were produced to furnish a total of five drug concentrations plus control. Aliquots of 0.1 mL of these different drug dilutions were added to the appropriate microtiter wells already containing 0.1 mL of medium, resulting in the required final drug concentrations.
(§6) Following drug addition, the plates were incubated at 37 °C, 5% carbon dioxide, 95% air, and 100% relative humidity for an additional 48 hours. For adherent cells, the test was finished by the addition of cold Cl3COOH. Cells were fixed in situ by the addition of 50 μL of cold 50% (w/v) Cl3COOH, and incubated at 4 °C for 1 hour. The supernatant was discarded, and the plates were washed with H2O (5×) and dried in air. Sulforhodamine B (SRB) solution (0.1 mL) at 0.4% (w/v) in 1% CH3COOH was added to each well, and plates were incubated at RT for 10 min. After staining, the unbound dye was removed by washing five times with 1% CH3COOH, and the plates were dried in the air. The bound stain is afterward solubilized with a 10 mM trizma base, and the absorbance is read on an automated plate reader at λ = 515 nm. Utilizing the seven absorbance measurements [time zero (tz), control growth (c), and test growth in the presence of the drug at the five concentration levels (ti)], the percentage growth was determined at each of the drug concentration levels. Growth inhibition (%) was calculated as:
(§7) [(ti − tz)/(c − tz)] × 100, for concentrations where ti ≥ tz (1) […]

HOP-92 = type: cell-based, human; settings: HOP-92, 10 μM
Experimental: as §1, §2, §3, §4, §5, §6, §7

UACC-62 = type: cell-based, human; settings: UACC-62, 10 μM
Experimental: as §1, §2, §3, §4, §5, §6, §7

PC-3 = type: cell-based, human; settings: PC-3, 10 μM
Experimental: as §1, §2, §3, §4, §5, §6, §7

SR = type: cell-based, human; settings: 10 μM
Experimental: as §1, §2, §3, §4, §5, §6, §7

M14 = type: cell-based; settings: Homo sapiens; M14, 10 μM; read-out: Growth percent
Experimental: as §1, §2, §3, §4, §5, §6, §7

SF-268 = type: cell-based; settings: Homo sapiens; SF-268, 10 μM; read-out: Growth percent
Experimental: as §1, §2, §3, §4, §5, §6, §7

HOP-62 = type: cell-based; settings: Homo sapiens; HOP-62, 10 μM; read-out: Growth percent
Experimental: as §1, §2, §3, §4, §5, §6, §7

MDA-MB-435 = type: cell-based; settings: Homo sapiens; MDA-MB-435, 10 μM; read-out: Growth percent
Experimental: as §1, §2, §3, §4, §5, §6, §7

SK-MEL-2 = type: cell-based; settings: Homo sapiens; SK-MEL-2, 10 μM; read-out: Growth percent
Experimental: as §1, §2, §3, §4, §5, §6, §7

ACHN = type: cell-based; settings: Homo sapiens, read-out: Growth percent
Experimental: as §1, §2, §3, §4, §5, §6, §7

HCT-15 = type: cell-based; settings: Homo sapiens; HCT-15, 10 μM; read-out: Growth percent
Experimental: as §1, §2, §3, §4, §5, §6, §7

NCI-H226 = type: cell-based; settings: Homo sapiens; NCI-H226, 10 μM; read-out: Growth percent
Experimental: as §1, §2, §3, §4, §5, §6, §7

NCI-H322M = type: cell-based; settings: Homo sapiens, read-out: Growth percent
Experimental: as §1, §2, §3, §4, §5, §6, §7

NCI-H23 = type: cell-based; settings: Homo sapiens; NCI-H23, 10 μM; read-out: Growth percent
Experimental: as §1, §2, §3, §4, §5, §6, §7

CAKI-1 = type: cell-based; settings: Homo sapiens; CAKI-1, 10 μM; read-out: Growth percent
Experimental: as §1, §2, §3, §4, §5, §6, §7

EKVX = type: cell-based; settings: Homo sapiens, read-out: Growth percent
Experimental: as §1, §2, §3, §4, §5, §6, §7

A549/ATCC = type: cell-based; settings: Homo sapiens, read-out: Growth percent
Experimental: as §1, §2, §3, §4, §5, §6, §7

HT29 = type: cell-based; settings: Homo sapiens, HT-29; HT29, 10 μM; read-out: Growth percent
Experimental: as §1, §2, §3, §4, §5, §6, §7

SNB-19 = type: cell-based; settings: Homo sapiens; SNB-19, 10 μM; read-out: Growth percent
Experimental: as §1, §2, §3, §4, §5, §6, §7

OVCAR-5 = type: cell-based; settings: Homo sapiens; OVCAR-5, 10 μM; read-out: Growth percent
Experimental: as §1, §2, §3, §4, §5, §6, §7

SK-OV-3 = type: cell-based; settings: Homo sapiens; SK-OV-3, 10 μM; read-out: Growth percent
Experimental: as §1, §2, §3, §4, §5, §6, §7

With O=c1cc(-c2ccccc2)oc2cc(OCCCC[P+](c3ccccc3)(c3ccccc3)c3ccccn3)cc(O)c12 [3h] the Growth percent (T-47D) was −49.47%, the Growth percent (HOP-92) was −69.74% and the Growth percent (UACC-62) was −73.54%. The Growth percent (PC-3) was −35.64%, the Growth percent (SR) was 0.35% and the activity at 10 µM (M14) was -84.3%. It also gave an activity at 10 µM (SF-268) of -67.6%, an activity at 10 µM (HOP-62) of -57% and an activity at 10 µM (MDA-MB-435) of -80.8%. The activity at 10 µM (SK-MEL-2) was -95.4%, the activity at 10 µM (ACHN) was -98% and the activity at 10 µM (HCT-15) was -88%. For the same compound, the activity at 10 µM (NCI-H226) was -50.4%, the activity at 10 µM (NCI-H322M) was -94.5% and the activity at 10 µM (NCI-H23) was -89.3%. For the same compound, the activity at 10 µM (CAKI-1) was -71.2%, the activity at 10 µM (EKVX) was -93.1% and the activity at 10 µM (A549/ATCC) was -43.5%. The activity at 10 µM (HT29) was -60.6%, the activity at 10 µM (SNB-19) was -91.6% and the activity at 10 µM (OVCAR-5) was -93.4%. For the same compound, the activity at 10 µM (SK-OV-3) was -76.5%.
Work on O=c1cc(-c2ccccc2)oc2cc(O)cc(O)c12 [compound 2, 5,7-dihydroxyflavone, reference compound] yielded a Growth percent (T-47D) of 101.44%, a Growth percent (HOP-92) of 77.93% and a Growth percent (UACC-62) of 82.24%. The Growth percent (PC-3) was 93.17%, the Growth percent (SR) was 77.87% and the activity at 10 µM (M14) was 107%. The activity at 10 µM (SF-268) was 102%, the activity at 10 µM (HOP-62) was 113% and the activity at 10 µM (MDA-MB-435) was 99.5%. For the same compound, the activity at 10 µM (SK-MEL-2) was 110%, the activity at 10 µM (ACHN) was 85% and the activity at 10 µM (HCT-15) was 81%. The activity at 10 µM (NCI-H226) was 86.8%, the activity at 10 µM (NCI-H322M) was 98.3% and the activity at 10 µM (NCI-H23) was 92.6%. It also gave an activity at 10 µM (CAKI-1) of 83.6%, an activity at 10 µM (EKVX) of 89.3% and an activity at 10 µM (A549/ATCC) of 98.5%. For the same compound, the activity at 10 µM (HT29) was 103%, the activity at 10 µM (SNB-19) was 86% and the activity at 10 µM (OVCAR-5) was 99.1%. It also gave an activity at 10 µM (SK-OV-3) of 128%.
